Measurements reported in patent publication US20180298024A1, “CORTISTATIN ANALOGS AND USES THEREOF” (President and Fellows of Harvard College, priority 2015, published 2018).
Where “and” joins values, the source holds several entries; their conditions need not be identical. Equal values may be shown once. Read-outs that look alike come from different tables or passages of the source.

Assays:
sodium channel = assay: Panlab sodium channel assay; type: binding; settings: 10 μM
Protocol: (§1) Compounds A, B, C, and D were tested in Panlab assays to evaluate potential off-target activity using standard assay kits. Methods employed in these studies have been adapted from the scientific literature to maximize reliability and reproducibility. Reference standards were run as an integral part of each assay to ensure the validity of the results obtained.
(§2) Compound B was tested in a subset of 30 Panlab assays that included the hits from screening Compound F in addition to the Panlab hERG and sodium channel assay. This allows direct comparison of Compound B to Compound F in terms of off-target profile.

off-targets (Panlabs) = assay: Panlab off-target assay panel; type: binding; settings: 10 μM
Protocol: as §1
IC50 values were determined by a non-linear, least squares regression analysis using MathIQ™ (ID Business Solutions Ltd., UK). Where inhibition constants (Ki) are presented, the Ki values were calculated using the equation of Cheng and Prusoff (Cheng, Y., Prusoff, W. H., Biochem. Pharmacol. 22:3099-3108, 1973) using the observed IC50 of the tested compound, the concentration of radioligand employed in the assay, and the historical values for the KD of the ligand (obtained experimentally at Eurofins Panlabs, Inc.). Where presented, the Hill coefficient (nH), defining the slope of the competitive binding curve, was calculated using MathIQ™.

[1] = TurboSol solubility evaluation in physiological saline; type: physicochemical; settings: HB-PS+0.3% DMSO
CDK8 [2] = target: T1, CDK8 (Homo sapiens, UniProt P49336); assay: CDK8 IC50 determination (Example 9); type: biochemical
T1 sequence (P49336 whole entry): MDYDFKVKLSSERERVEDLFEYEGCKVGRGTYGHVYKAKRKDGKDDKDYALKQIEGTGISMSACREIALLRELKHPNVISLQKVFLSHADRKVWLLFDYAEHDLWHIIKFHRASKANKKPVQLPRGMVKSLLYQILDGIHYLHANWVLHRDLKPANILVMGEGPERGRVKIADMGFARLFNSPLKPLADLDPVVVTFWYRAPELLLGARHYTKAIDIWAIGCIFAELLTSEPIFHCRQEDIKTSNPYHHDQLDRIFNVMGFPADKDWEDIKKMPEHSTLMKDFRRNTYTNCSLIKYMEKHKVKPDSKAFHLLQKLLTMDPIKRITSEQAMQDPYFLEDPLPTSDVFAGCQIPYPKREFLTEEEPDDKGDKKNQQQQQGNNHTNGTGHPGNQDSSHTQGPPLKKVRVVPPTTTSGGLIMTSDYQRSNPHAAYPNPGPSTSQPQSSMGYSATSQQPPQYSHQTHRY
T1 sequence (P24863 whole entry partner): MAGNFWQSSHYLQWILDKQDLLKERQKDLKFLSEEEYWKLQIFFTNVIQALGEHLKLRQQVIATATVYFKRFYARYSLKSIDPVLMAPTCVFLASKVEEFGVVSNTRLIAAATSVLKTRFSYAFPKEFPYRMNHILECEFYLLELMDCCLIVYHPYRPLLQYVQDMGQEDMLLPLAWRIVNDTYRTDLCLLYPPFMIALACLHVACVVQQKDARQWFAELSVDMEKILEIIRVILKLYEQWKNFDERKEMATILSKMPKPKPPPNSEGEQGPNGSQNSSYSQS

CDK8 [3] = target: T1, CDK8; assay: CDK8 Kd and residence time; type: binding
CDK8 [4] = target: T1, CDK8; assay: Western blot study of CDK8 inhibition; type: cell-based; settings: decreased staining results from inhibition of the target
Protocol: CDK8 inhibition in cells as measured by inhibition of Interferon-gamma (IFNγ)-stimulated STAT1-S727 phosphorylation. The compounds were provided as 200 μl of 1×10^−03 M/100% stock solutions in vials. The vials arrived in good condition and 2×100 μl each of the stock solutions were transferred into wells A2 to H2 of a 96 well “master plate” (barcoded “11273-UNH-01”), according to Table 12.
The dose response curves presented above were corroborated with western blot studies.

SKNO-1 = assay: Half-maximal growth inhibition (GI50), SKNO-1; type: cell-based; settings: Homo sapiens, 240 h, AML, M2, RUNX1-RUNX1T1, read-out: GI50 (nM), day 10
Protocol: (§3) Compounds A, B, C, D, and F were tested against various cell lines to probe their broad utility against cancer. Cortistatin A (CA) was also tested against the cell lines in a head to head fashion.

MV4; 11 = assay: Half-maximal growth inhibition (GI50), MV4; 11; type: cell-based; settings: Homo sapiens, 240 h, AML, M5, MLL-AF4, read-out: GI50 (nM), day 10
Protocol: as §3

MOLM-14 = assay: Half-maximal growth inhibition (GI50), MOLM-14; type: cell-based; settings: Homo sapiens, 240 h, AML, M5, MLL-AF9, read-out: GI50 (nM), day 10
Protocol: as §3

HEL = assay: Half-maximal growth inhibition (GI50), HEL; type: cell-based; settings: Homo sapiens, 240 h, AML, erythroleukemia, JAK2V617F, read-out: GI50 (nM), day 10
Protocol: as §3

[5] = test system: SET-2 AML cell line (FLAG-CDK8 WT vs FLAG-CDK8-W105M); assay: CDK8 W105M versus wild type SET-2 cell competition (flow cytometry); type: cell-based; settings: after 3 days and 7 days of treatment
Protocol: Compounds A, B, C, and D inhibit SET-2 AML cell line proliferation by inhibiting CDK8. ZsGreen (Clontech) and FLAG-CDK8 WT (wild type) or mCherry (Clontech) and FLAG-CDK8-W105M were expressed in SET 2 cells. The cells were mixed, the ratio of red to green fluorescence was determined by flow cytometry, and the cells were treated with the indicated compounds. After 3 days and 7 days of treatment, the ratio of red to green fluorescent cells was determined.

[6] = test system: Human AML cell line MV4;11; assay: MV4;11 disseminated leukemia model (bioluminescence); type: in vivo, NSG mice
hERG = hERG (Homo sapiens, UniProt Q12809); assay: Panlab hERG assay; type: binding; design: Eurofins Panlabs
hERG, sequence (Q12809 whole entry): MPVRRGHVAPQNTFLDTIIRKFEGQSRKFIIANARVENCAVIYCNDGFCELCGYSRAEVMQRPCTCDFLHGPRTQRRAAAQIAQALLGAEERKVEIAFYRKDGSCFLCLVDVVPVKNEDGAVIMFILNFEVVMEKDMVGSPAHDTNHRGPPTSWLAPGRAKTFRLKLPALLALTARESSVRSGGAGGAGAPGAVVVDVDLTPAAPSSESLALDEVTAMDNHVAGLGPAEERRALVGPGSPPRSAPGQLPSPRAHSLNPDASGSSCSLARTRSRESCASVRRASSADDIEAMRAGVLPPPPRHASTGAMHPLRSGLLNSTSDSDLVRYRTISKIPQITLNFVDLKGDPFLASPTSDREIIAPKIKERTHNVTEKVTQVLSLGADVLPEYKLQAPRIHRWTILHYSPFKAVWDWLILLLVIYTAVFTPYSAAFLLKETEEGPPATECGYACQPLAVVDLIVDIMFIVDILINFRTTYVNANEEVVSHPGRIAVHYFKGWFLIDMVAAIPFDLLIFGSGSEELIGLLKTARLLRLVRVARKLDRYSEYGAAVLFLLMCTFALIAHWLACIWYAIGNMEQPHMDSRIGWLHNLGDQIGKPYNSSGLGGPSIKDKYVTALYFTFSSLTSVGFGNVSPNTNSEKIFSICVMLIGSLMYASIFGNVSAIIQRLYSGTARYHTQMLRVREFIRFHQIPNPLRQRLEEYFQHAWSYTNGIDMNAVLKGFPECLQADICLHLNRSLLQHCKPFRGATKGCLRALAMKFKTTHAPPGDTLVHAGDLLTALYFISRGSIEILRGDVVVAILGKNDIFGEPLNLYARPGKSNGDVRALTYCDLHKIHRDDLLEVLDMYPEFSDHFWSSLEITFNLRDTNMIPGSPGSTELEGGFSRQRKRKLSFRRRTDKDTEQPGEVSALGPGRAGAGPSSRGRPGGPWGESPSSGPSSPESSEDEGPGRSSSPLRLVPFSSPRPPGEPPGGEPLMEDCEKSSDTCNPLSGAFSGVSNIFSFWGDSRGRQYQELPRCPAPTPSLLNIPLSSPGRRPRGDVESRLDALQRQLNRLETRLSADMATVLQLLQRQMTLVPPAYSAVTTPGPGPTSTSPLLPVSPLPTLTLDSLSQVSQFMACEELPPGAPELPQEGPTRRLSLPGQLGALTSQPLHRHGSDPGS
Protocol: as §1, §2

[7] = Pharmacokinetic profile in mice (plasma, LC-MS/MS); settings: for ½ life: CD-1 mice
Protocol: Formulation correction for salt content was not required for this study. Materials were vortexed and sonicated at room temperature following addition of vehicle. The solutions were maintained at ambient temperature stirring in the dark for at least 30 minutes prior to dose administration. The formulations were then vortexed and sonicated briefly to help ensure solubility.
Mice were selected from the Testing Facility's rodent colony. The animals were enrolled in the study based on acceptable health as determined by Testing Facility personnel on the day of test article administration. Animals were held in environmental acclimation for at least 48 hours (±6 hours) prior to dosing. Animals were maintained at temperatures between 16-26° C. (62-78° F.) with the humidity range between 30-70%. Animals in all groups were fasted overnight and food was returned 4 hours following dosing. Water was provided ad libitum throughout the study.
Whole blood samples for plasma were either collected from each animal by either direct vein puncture of the submandibular vein (survival blood collection) or by cardiac puncture following euthanasia with CO2 (terminal blood collection). […] Following collection, whole blood was placed into a tube containing K2EDTA and immediately placed on wet ice until processed for plasma. Whole blood samples were centrifuged at 2200×g for 10 minutes in a refrigerated centrifuge (5±3° C.) to isolate plasma. The samples were transferred to individual polypropylene containers and immediately placed on dry ice before storage at −70±10° C. until analysis. Plasma collected from undosed spare animals was pooled and analyzed as well.
Once collected the mouse plasma studies were quantitated using LCMS/MS spectroscopy to determine the concentration of compound. […] Eight calibration standards containing the analyte and internal standard imipramine were prepared and analyzed at the beginning and at the end of the sequence. A calibration curve was generated and sample concentrations calculated using the Quantitation software MassHunter.

[8] = CD-1, mouse, plasma, iv, 3 mg/kg
[9] = CD-1, mouse, plasma, po, 10 mg/kg

Structure (SMILES): C[C@]12CC=C3C=C4CC[C@@H](N5C[C@H](O)[C@@H](O)C5)C[C@]45CC[C@]3(O5)[C@@H]1CC[C@@H]2c1ccc2ccncc2c1 [Compound D]
- % inhibition, Panlab sodium channel assay (sodium channel): 65%
- number of targets with ≥75% inhibition (off-targets (Panlabs); Safety Panel = 28 binding assays (Eurofins Panlabs)): 3
- number of targets with greater than 75% inhibition (off-targets (Panlabs); subset of 30 Panlab assays): 3
- Average LSU (×1000) ([1]; 1 μM): 4.7 LSU (×1000)
- Average LSU (×1000) ([1]; 3 μM): 6.4 LSU (×1000)
- Average LSU (×1000) ([1]; 10 μM): 7.0 LSU (×1000)
- Average LSU (×1000) ([1]; 30 μM): 16.6 LSU (×1000)
- solubility in the TurboSol assay [1]: slightly insoluble at 30 μM concentrations
- IC50 (CDK8 [2]; read-out: IC50 (nM) against CDK8, average): 6.4 nM
- IC50 (CDK8 [2]; tested in duplicate, read-out: IC50 against CDK8, single determinations): 6.4 nM and 6.5 nM
- Kd (CDK8 [3]): 0.2 ± 0.02 nM
- inhibition of CDK8 in Western blot (CDK8 [4]): dose dependent response
- GI50 (SKNO-1): < 1 nM
- GI50 (MV4; 11): 1.5 nM
- GI50 (MOLM-14): 6 nM
- GI50 (HEL): > 1000 nM
- ratio of red (CDK8 W105M) to green (wild type) fluorescent cells [5]: dose-dependently shifted the ratio of red to green cells
- Fold increase in leukemia burden 15 days after 1st dose ([6]; 3 mpk IV 7on/2off/4on then IP 2on, NSG mice): 1.1 fold
- in vivo anti-leukemic efficacy (bioluminescence, words) ([6]; compounds dosed at their highest tolerable dose, NSG mice): superior in vivo efficacy as compared to Compound F
- Efficacy Rank Day 15 ([6]; each compound at its own dose/schedule, data from 3 separate studies): 1
- inhibition at 10 µM (hERG): 20%
- Vd [7, 8]: 5.41 L/kg
- clearance [7, 8]: 18 mL/min/kg
- AUC(0-inf) [7, 9]: 1390 ng·h/mL
- Cmax [7, 9]: 377 nM
- Tmax [7, 9]: 2 h
- bioavailability [7, 9]: 15%
- concentration at 24 h [7, 9]: 7.6 nM
- ½ life ([7]; IV 3 mg/kg): 6.60 h
- ½ life ([7]; PO 10 mg/kg): 4.25 h
- AUC(0-inf) ([7]; male, CD-1, mouse, plasma, iv, 3 mg/kg): 2780 ng·h/mL
